Measured values reported in patent publication US10729691B2, “Treatment of infectious diseases with glucose uptake inhibitors” (Kadmon Corporation LLC, priority 2015, dated 2020).

Legend:
[1] = test system: P. falciparum-infected RBCs; assay: Glycolysis IC50 / lactate excretion assay in P. falciparum-infected RBCs; format: cell-based; details: Plasmodium falciparum
Description: The cultures were harvested and DNA quantitated using the standard Sybr Green I fluorescence assay. […] The culture medium was harvested and extracellular lactic acid was quantified by LC-MS.
P. falciparum (HB-3 strain) cultures were maintained in standard culture conditions. […] Parasites were grown in O+ donor blood, 2% hematocrit.
Parasite cultures were seeded in 96-well plates (1% hematocrit, 1-2% starting parasitemia, 100 μL total volume) with varying concentrations of the test compounds in a final concentration of 0.1% DMSO. Plates were cultured for 48 hours before harvesting the culture medium for LC-MS analysis. At harvest, thin smears were taken and examined microscopically to observe any alterations in parasite morphology.
Culture medium samples were diluted in 9 volumes of methanol containing U-^13C-glucose and 1-^13C-lactate (final concentration 0.25 mM each). The samples were clarified by centrifugation at 13,000 RCF for 10 minutes. […] Mobile phase A was acetonitrile, and mobile phase B was 20 mM ammonium acetate (pH 9.4).
(§1) The sample was analyzed on an Exactive mass spectrometer (Thermo Scientific) to determine the chromatographic peak areas the analytes and internal standards. Glucose and lactate were quantified by taking the ratio of the unlabeled peak area to the area of the isotope-labeled standard.

[2] = test system: P. falciparum (3D7 strain)-infected erythrocyte cultures; assay: LC-MS metabolomics analysis of ATP levels in infected erythrocyte cultures; format: cell-based, Plasmodium falciparum; details: 2.5 uM compound
Description: The ATP levels of the infected cells are substantially depleted within 15 minutes of compound exposure and remain so for the duration of the experiment.
Cellular metabolite levels were determined in cultures that had been enriched for late stage (trophozoite/schizont)-infected erythrocytes by centrifuging a bulk culture suspension over a two-step Percoll gradient (65%/35% Percoll) at 1,500 RCF for 15 minutes and collecting the parasitized erythrocytes at the interface. 10 uL of packed cells were pelleted from the resulting cultures by centrifugation (500 RCF, 5 minutes), the culture medium removed by aspiration, and the cells extracted with 1.2 mL of 80% methanol/20% on dry ice. The first extraction was collected as the supernatant after centrifugation (1,000 RCF, 5 minutes) and the pellet extracted again with 0.3 mL of 80% methanol/20%. The two extracts were pooled, dried under nitrogen and resuspended in 200 uL of water prior to LC-MS analysis. […]
as §1

Row | SMILES | IC50 [1] [nM] | time until ATP levels of the infected cells are substantially depleted [2] [min]
1 | CC(C)NC(=O)COc1cccc(-c2nc(Nc3ccc4[nH]ncc4c3)c3sccc3n2)c1 [Example 3] | 101 to 250 | ≤ 15
2 | CC(C)CNC(=O)COc1cccc(-c2nc3c(c(Nc4ccc(-c5cn[nH]c5)cc4)n2)COCC3)c1 [Example 46, 2-(3-(4-((4-(1H-pyrazol-4-yl)phenyl)amino)-7,8-dihydro-5H-pyrano[4,3-d]pyrimidin-2-yl)phenoxy)-N-isobutylacetamide] | 10 to 100 | 
3 | CC(C)(C)CNC(=O)COc1cccc(-c2nc3c(c(Nc4ccc(-c5cn[nH]c5)cc4)n2)COCC3)c1 [Example 47, 2-(3-(4-((4-(1H-pyrazol-4-yl)phenyl)amino)-7,8-dihydro-5H-pyrano[4,3-d]pyrimidin-2-yl)phenoxy)-N-neopentylacetamide] | 10 to 100 | 
4 | O=C(COc1cccc(-c2nc3c(c(Nc4ccc(-c5cn[nH]c5)cc4)n2)COCC3)c1)NC1CCCC1 [Example 51, 2-(3-(4-((4-(1H-pyrazol-4-yl)phenyl)amino)-7,8-dihydro-5H-pyrano[4,3-d]pyrimidin-2-yl)phenoxy)-N-cyclopentylacetamide] | 101 to 250 | 
5 | O=C(COc1cccc(-c2nc3c(c(Nc4ccc(-c5cn[nH]c5)cc4)n2)COCC3)c1)NC1CCC1 [Example 52, 2-(3-(4-((4-(1H-pyrazol-4-yl)phenyl)amino)-7,8-dihydro-5H-pyrano[4,3-d]pyrimidin-2-yl)phenoxy)-N-cyclobutylacetamide] | 101 to 250 | 
6 | CC(C)NC(=O)COc1cccc(-c2nc(Nc3ccc(-c4cn[nH]c4)cc3)c3cnccc3n2)c1 [Example 53, 2-(3-(4-((4-(1H-pyrazol-4-yl)phenyl)amino)pyrido[4,3-d]pyrimidin-2-yl)phenoxy)-N-isopropylacetamide] | 101 to 250 | 
7 | CC(C)(C)NC(=O)COc1cccc(-c2nc(Nc3ccc(-c4cn[nH]c4)cc3)c3cnccc3n2)c1 [Example 58, 2-(3-(4-((4-(1H-pyrazol-4-yl)phenyl)amino)pyrido[4,3-d]pyrimidin-2-yl)phenoxy)-N-(tert-butyl)acetamide] | 101 to 250 | 

Further lines, with some results ahead:

Row | IC50 [1] [nM] | SMILES | time until ATP levels of the infected cells are substantially depleted [2] [min]
8 | 10 to 100 | CCC(CC)NC(=O)COc1cccc(-c2nc3c(c(Nc4ccc(-c5cn[nH]c5)cc4)n2)CN(C(C)=O)CC3)c1 [Example 45, 2-(3-(4-((4-(1H-pyrazol-4-yl)phenyl)amino)-6-acetyl-5,6,7,8-tetrahydropyrido[4,3-d]pyrimidin-2-yl)phenoxy)-N-(pentan-3-yl)acetamide] | 
9 | 10 to 100 | CC(=O)N1CCc2nc(-c3cccc(OCC(=O)NC(C)(C)C)c3)nc(Nc3ccc(-c4cn[nH]c4)cc3)c2C1 [Example 48, 2-(3-(4-((4-(1H-pyrazol-4-yl)phenyl)amino)-6-acetyl-5,6,7,8-tetrahydropyrido[4,3-d]pyrimidin-2-yl)phenoxy)-N-(tert-butyl)acetamide] | 
10 | 501 to 1000 | CC(=O)N1Cc2nc(-c3cccc(OCC(=O)NC(C)C)c3)nc(Nc3ccc(-c4cn[nH]c4)cc3)c2C1 [Example 54, 2-(3-(4-((4-(1H-pyrazol-4-yl)phenyl)amino)-6-acetyl-6,7-dihydro-5H-pyrrolo[3,4-d]pyrimidin-2-yl)phenoxy)-N-isopropylacetamide] | 
11 | 10 to 100 | CCC(CC)NC(=O)COc1cccc(-c2nc3c(c(Nc4ccc(-c5cn[nH]c5)cc4)n2)CN(C(C)=O)C3)c1 [Example 55, 2-(3-(4-((4-(1H-pyrazol-4-yl)phenyl)amino)-6-acetyl-6,7-dihydro-5H-pyrrolo[3,4-d]pyrimidin-2-yl)phenoxy)-N-(pentan-3-yl)acetamide] | 
12 | 101 to 250 | CC(=O)N1Cc2nc(-c3cccc(OCC(=O)NC(C)(C)C)c3)nc(Nc3ccc(-c4cn[nH]c4)cc3)c2C1 [Example 56, 2-(3-(4-((4-(1H-pyrazol-4-yl)phenyl)amino)-6-acetyl-6,7-dihydro-5H-pyrrolo[3,4-d]pyrimidin-2-yl)phenoxy)-N-(tert-butyl)acetamide] | 
13 | 101 to 250 | CC(=O)N1CCc2nc(-c3cccc(OCC(=O)NC4CCCC4)c3)nc(Nc3ccc(-c4cn[nH]c4)cc3)c2C1 [Example 57, 2-(3-(4-((4-(1H-pyrazol-4-yl)phenyl)amino)-6-acetyl-5,6,7,8-tetrahydropyrido[4,3-d]pyrimidin-2-yl)phenoxy)-N-cyclopentylacetamide] | 
14 | 101 to 250 | CC(=O)N1CCc2nc(-c3cccc(OCC(=O)NCC(C)C)c3)nc(Nc3ccc(-c4cn[nH]c4)cc3)c2C1 [Example 59, 2-(3-(4-((4-(1H-pyrazol-4-yl)phenyl)amino)-6-acetyl-5,6,7,8-tetrahydropyrido[4,3-d]pyrimidin-2-yl)phenoxy)-N-isobutylacetamide] | 
